The text below walks through data of US4151268A, “Barbituric acid antigens and antibodies specific therefor” (Hoffmann-La Roche Inc., priority 1977, dated 1979).

Test [1] concerns barbituric acid specific antibody (antisera obtained in Example 2). The test is described as follows: Comparison runs: recognition of other barbituric acid derivatives and related compounds by the antibody. The note with it: at similar concentrations.
Test [2] has the same test system. The test can be described thus: Radioimmunoassay: competitive inhibition of binding of [C14] pentobarbital to antiserum (ammonium sulfate precipitation). The note with it: 4° C., overnight.

The structures appear in SMILES notation.

Take `CN1C(=O)NC(=O)C(C)(C2=CCCCC2)C1=O` (centres unmarked) [hexobarbital]: the “recognition / binding by the antibody” value in test [1] is recorded as “failed to bind”.

On to `CCC1(CC)C(=O)NC(=O)NC1=O` [barbital], for which the “recognition / binding by the antibody” value in test [1] is reported as “capable of recognizing”.

Regarding `CCCC(C)C1(CC)C(=O)NC(=O)NC1=O` (centres unmarked) [pentobarbital], in test [1], the “recognition / binding by the antibody” value is on record as “capable of recognizing”. For the same compound, the “Percent inhibition of binding of pentobarbital-C^14” value was 10% in test [2] (1 nanogram non-radioactive pentobarbital added); 20% in test [2] (5 nanograms non-radioactive pentobarbital added, sample volume 10 μl); 28% in test [2] (10 nanograms non-radioactive pentobarbital added); 43% in test [2] (20 nanograms non-radioactive pentobarbital added); 52% in test [2] (30 nanograms non-radioactive pentobarbital added); 63% in test [2] (40 nanograms non-radioactive pentobarbital added).

Regarding `CCC1(c2ccccc2)C(=O)NC(=O)NC1=O` [phenobarbital], the “recognition / binding by the antibody” value in test [1] was “capable of recognizing”.

On to `CCCC(C)C1(CC)C(=O)NC(=S)NC1=O` (centres unmarked) [thiopental], for which the “recognition / binding by the antibody” value in test [1] is “failed to bind”.
